Data from US20240287036A1, “COMPOUNDS USEFUL IN THE TREATMENT OR PREVENTION OF A PRMT5-MEDIATED DISORDER” (ARGONAUT THERAPEUTICS LIMITED, priority 2021, published 2024).

Experiments:
[1] = Hepatocyte stability assay (Human Hep Clint); assay type: in vitro ADME; details: cryopreserved pooled human hepatocytes, 0.5 × 10^6 cells/mL, 1 μM test compound, up to 90 min
Protocol: The activity of the compounds was tested using several industry accepted methods. These included methods to measure the human hepatocyte clearance values (Human Hep Clint) and a PRMT5 assay. The methods that were used were conventional.
Cell viability was tested by trypan blue exclusion after thawing.
Thawing Medium: Williams' Medium E containing 5% fetal bovine serum and 30% Percoll solution and other supplements.
Incubation Medium: Williams' Medium E (no phenol red) containing 2 mM L-Glutamine and 25 mM HEPES.
Stop Solution: Acetonitrile containing 200 ng/ml tolbutamide and labetalol as internal standards.
The following steps were performed. • 1. 10 mM test compounds were provided by Compound Sample Group. • 2. 30 mM positive control stock solutions: Dissolved accurate amount of positive control compounds in dimethyl sulfoxide (DMSO). • 3. 1000× Stock Solution: Diluted 10 mM test compounds and 30 mM positive control compounds to 1 mM and 3 mM with DMSO in 96-well plates. • 4. 100× Dosing Solution: Diluted 1 mM test compounds and 3 mM positive control compounds to 100 µM and 300 µM dosing solutions with ACN. • 5. Preparation of 0.5×10^6/mL cells suspension: cryopreserved cells were thawed, isolated and suspended in Incubation Medium, then diluted with pre-warmed Incubation Medium to 0.5×10^6 cells/mL. • 6. Add 198 μL of pre-warmed cell suspensions in 96-well plates. • 7. Preparation of Quenching Plate: Transfer 125 μL of stop solution (acetonitrile containing 200 ng/ml tolbutamide and 200 ng/ml labetalol as internal standards) in a set of pre-labelled 96-well plates. • 8. Spike 2 μL dosing solution to each well of 96-well plates in duplicates. • 9. For T0 Samples, mix to achieve a homogenous suspension for about 1 min, then immediately transfer 25 μL of each sample into well containing 125 μL of ice-cold stop solution followed by mixing. • 10. Incubate all plates at 37° ° C. in a 95% humidified incubator at 5% CO2 to start the reactions with constant shaking at about 600 rpm. • 11. At 15, 30, 60 and 90 min, mix samples and then transfer 25 μL of each sample at each time point to well containing 125 μL of ice-cold stop solution followed by mixing. • 12. Medium Control (MC) sample plates (labelled as T0-MC and T90-MC) are prepared at TO and T90 by adding the same components to each well except cell suspensions. • 13. At each corresponding time point, stop the reactions by removing the plates from incubator and mixing with 125 μL of ice-cold stop solution. • 14. Vortex the plates immediately on a plate shaker at 500 rpm for 10 minutes. Then, centrifuge all sample plates at 3220× g for 20 min at 4° C. • 15. After centrifugation, 80 μL/well of supernatant in the sample plates are transferred to another set of pre-labelled 96-well plates which containing 240 μL of ultra pure water according to the plate map. • 16. Analytical plates are sealed and store at 4° C. until LC-MS/MS analysis.
The remaining percents of test articles after incubation were calculated by the follow equations: […]
Use equation of first order kinetics to calculate t1/2 and CLint. Equation of first order kinetics:
[formula] [formula] CLint (hep)=k/million cells per mL
CLint (liver)=CLint (hep)·liver weight (g/kg body weight)*hepatocellularity

human PRMT5/MEP50 = target: T1, human PRMT5/MEP50 (Homo sapiens, UniProt O14744); test: PRMT5 chemiluminescent assay; assay type: biochemical; details: human PRMT5/MEP50 expressed in HEK293 cells, biotinylated histone peptides, 60 min reaction; read-out: PRMT5 pIC50 (converted)
T1 construct: host or cells: HEK293 cells
T1 sequence (O14744 whole entry): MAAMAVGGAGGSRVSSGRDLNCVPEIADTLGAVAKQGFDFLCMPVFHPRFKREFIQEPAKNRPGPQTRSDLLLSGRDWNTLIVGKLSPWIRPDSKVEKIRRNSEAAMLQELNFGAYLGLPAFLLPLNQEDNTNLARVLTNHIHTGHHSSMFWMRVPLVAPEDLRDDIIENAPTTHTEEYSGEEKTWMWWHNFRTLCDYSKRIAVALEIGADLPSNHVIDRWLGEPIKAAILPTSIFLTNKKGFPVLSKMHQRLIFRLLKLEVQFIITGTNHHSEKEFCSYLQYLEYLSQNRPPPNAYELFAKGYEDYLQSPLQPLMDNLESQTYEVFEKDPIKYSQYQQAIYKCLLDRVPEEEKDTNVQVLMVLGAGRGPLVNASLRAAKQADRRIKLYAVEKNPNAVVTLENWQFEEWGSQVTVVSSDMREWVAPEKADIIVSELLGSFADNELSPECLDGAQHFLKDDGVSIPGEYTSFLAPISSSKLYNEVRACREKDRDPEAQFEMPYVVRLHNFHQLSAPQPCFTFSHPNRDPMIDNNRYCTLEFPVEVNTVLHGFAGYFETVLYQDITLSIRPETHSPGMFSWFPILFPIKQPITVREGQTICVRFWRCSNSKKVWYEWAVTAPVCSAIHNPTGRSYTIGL
T1 sequence (Q9BQA1 whole entry partner): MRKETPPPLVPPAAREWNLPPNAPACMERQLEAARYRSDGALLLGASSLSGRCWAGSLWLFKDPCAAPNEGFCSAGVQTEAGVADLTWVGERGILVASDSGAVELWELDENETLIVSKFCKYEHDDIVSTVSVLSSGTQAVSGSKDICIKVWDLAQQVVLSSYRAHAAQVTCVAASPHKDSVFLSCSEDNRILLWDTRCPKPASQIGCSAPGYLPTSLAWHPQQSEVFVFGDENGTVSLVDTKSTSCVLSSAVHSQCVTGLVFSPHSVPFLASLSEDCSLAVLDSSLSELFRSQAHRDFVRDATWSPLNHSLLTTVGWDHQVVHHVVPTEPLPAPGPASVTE
Protocol: A PRMT5 chemiluminescent assay was used to measure the IC50 activity of PRMT5 of the compounds of CEx and Examples 1 to 8 above. Biotinylated histone peptides were synthesized and attached to 384-well plates. Compound serial dilutions were performed and added to the assay plate. Histone H4 monomethyl R^3 antibody was obtained from Abcam. A master mix for each well was prepared and human PRMT5/MEP50 (expressed in HEK293 cells) diluted in assay buffer to a concentration of 5 ng/μL. The reaction was incubated and slowly rotated for 60 minutes at the point of PRMT5/MEP50 addition. The supernatant from the wells was removed and blocking buffer was added to each well and rotated for 10 minutes. The primary antibody was diluted and added to every well for 60 minutes, before it was removed and the wells washed. The horse radish peroxidase (HRP)-coupled secondary antibody was diluted and added to each well with an incubation time of 30 minutes. The HRP chemiluminescent substrate was added to every well. The plate was read on a Flourstar Omega BMG Labtech instrument (Ortenberg, Germany) and the analysis of IC50 was performed using the Flourstar Omega BMG Labtech software.

Row | Compound | hepatocyte CLint at 1 μM [1] [µL/min/1e6 cells] | IC50 (human PRMT5/MEP50) [nM]
1 | O=C(NC[C@H](O)CN1CCc2ccccc2C1)N1CCC[C@@H](c2ccccc2)C1 [CEx, reference compound] | 54.1 | 12.6
2 | O=C(NC[C@H](O)CN1CCc2ccccc2C1)N1CCC[C@@H](N2CCCC2=O)C1 [Ex. 1, (R)—N—((S)-3-(3,4-dihydroisoquinolin-2(1H)-yl)-2-hydroxypropyl)-3-(2-oxopyrrolidin-1-yl)piperidine-1-carboxamide] | 1.7 | 50.1
3 | O=C(NC[C@H](O)CN1CCc2ccccc2C1)N1CCC[C@@H](N2CCCCC2=O)C1 [Ex. 2, (R)—N—((S)-3-(3,4-dihydroisoquinolin-2(1H)-yl)-2-hydroxypropyl)-2-oxo-[1,3′-bipiperidine]-1′-carboxamide] | < 3 | 15.8
4 | CC1CCC(=O)N([C@@H]2CCCN(C(=O)NC[C@H](O)CN3CCc4ccccc4C3)C2)C1 (stereo partly drawn) [Ex. 3, (3′R)—N—((S)-3-(3,4-dihydroisoquinolin-2(1H)-yl)-2-hydroxypropyl)-5-methyl-2-oxo-[1,3′-bipiperidine]-1′-carboxamide] | 2.5 | 31.6
5 | [2H]C1([2H])c2ccccc2CCN1C[C@@H](O)CNC(=O)N1CCC[C@@H](N2CCCCC2=O)C1 [Ex. 4, (R)—N—((S)-3-(3,4-dihydroisoquinolin-2(1H)-yl-1,1-d2)-2-hydroxypropyl)-2-oxo-[1,3′-bipiperidine]-1′-carboxamide] | 2.5 | 31.6
6 | [2H]C1([2H])CN(C[C@@H](O)CNC(=O)N2CCC[C@@H](N3CCCCC3=O)C2)C([2H])([2H])c2ccccc21 [Ex. 5, (R)—N—((S)-3-(3,4-dihydroisoquinolin-2(1H)-yl-1,1,4,4-d4)-2-hydroxypropyl)-2-oxo-[1,3′-bipiperidine]-1′-carboxamide] |  | 20
7 | CC1CCCN([C@@H]2CCCN(C(=O)NC[C@H](O)CN3CCc4ccccc4C3)C2)C1=O (stereo partly drawn) [Ex. 6, (3′R)—N—((S)-3-(3,4-dihydroisoquinolin-2(1H)-yl)-2-hydroxypropyl)-3-methyl-2-oxo-[1,3′-bipiperidine]-1′-carboxamide] | < 6 | 12.6
8 | Cc1ccnn([C@@H]2CCCN(C(=O)NC[C@H](O)CN3CCc4ccccc4C3)C2)c1=O [Ex. 7, (R)—N—((S)-3-(3,4-dihydroisoquinolin-2(1H)-yl)-2-hydroxypropyl)-3-(5-methyl-6-oxopyridazin-1(6H)-yl)piperidine-1-carboxamide] | 10.8 | 7.94
9 | CN1CCCN([C@@H]2CCCN(C(=O)NC[C@H](O)CN3CCc4ccccc4C3)C2)C1=O [Ex. 8, (R)—N—((S)-3-(3,4-dihydroisoquinolin-2(1H)-yl)-2-hydroxypropyl)-3-(3-methyl-2-oxotetrahydropyrimidin-1(2H)-yl)piperidine-1-carboxamide] | < 6.4 | 12.6
